# Measurements as given in US20190374509A1, “Methods of Using Metamizole for Treatment of Pyrexia in Equines” (Kindred Biosciences, Inc., priority 2018, published 2019).
# Assays:
# horses [1] = experiment: Margin of safety study: lung bacterial culture at necropsy
# horses [2] = experiment: Pyrexia efficacy Study 1 (unmasked, single IV dose, rectal temperature); type: in vivo; details: 30 mg/kg IV single dose; for Mean (± SD) temperature change from baseline: horses with rectal temperature ≥102.0° F.
# Protocol: Study 1: The unmasked laboratory study was conducted at a clinical research organization in the United States. Institutional Animal Care and Use Committee (IACUC) approval was obtained prior to the conduct of the study. Horses one year of age or older were comingled by the Investigator in order to facilitate transmission of respiratory infections. Horses were monitored by the study staff for elevation of rectal temperature. All horses received treatment once the rectal temperature was ≥102.0° F. A single dose of dipyrone was administered intravenously (30 mg/kg IV). Rectal temperature was monitored 1, 2, 3, and 6 hours post-treatment administration.
# In both studies horses were assessed daily to determine overall safety. Medications that could have impacted the temperature or the underlying cause of the disease were not permitted in either study; however, horses in both studies were eligible for rescue at the discretion of the Investigator. Following completion of the study, the Investigator treated the horses with standard of care for the type, and severity, of clinical signs. Statistical analysis was performed with the Wilcoxon rank sum test (SAS®, SAS Institute, Cary N.C., version 9.4).
structure (smiles),measurement,setting,value
"Cc1c(N(C)CS(=O)(=O)O)c(=O)n(-c2ccccc2)n1C [dipyrone, [(2,3-dihydro-1,5-dimethyl-3-oxo-2-phenyl-1H-pyrazol-4-yl)methylamino] methanesulfonic acid]","S. aureus cultured at necropsy, number positive horses","horses [1]; 1X, 30 mg/kg IV every 8 hours",1
same,"Acinetobacter sp. cultured at necropsy, number positive horses","horses [1]; 2X, 60 mg/kg IV every 8 hours",2X (n = 1)
same,"Aeromonas sp. cultured at necropsy, number positive horses","horses [1]; 2X, 60 mg/kg IV every 8 hours",2X (n = 1)
same,"Pantoea sp. cultured at necropsy, number positive horses","horses [1]; 2X, 60 mg/kg IV every 8 hours",2X (n = 1)
same,"Pseudomonas sp. cultured at necropsy, number positive horses","horses [1]; 2X, 60 mg/kg IV every 8 hours",2X (n = 1)
same,"S. aureus cultured at necropsy, number positive horses","horses [1]; 2X, 60 mg/kg IV every 8 hours",2
same,"S. dysgalactiae subsp. equisimilis cultured at necropsy, number positive horses","horses [1]; 2X, 60 mg/kg IV every 8 hours",2X (n = 1)
same,"S. equi subsp. zooepidemicus cultured at necropsy, number positive horses","horses [1]; 2X, 60 mg/kg IV every 8 hours","0X (n = 2), 2X (n = 1), 3X (n = 1)"
same,"S. aureus cultured at necropsy, number positive horses","horses [1]; 3X, 90 mg/kg IV every 8 hours",2
same,"S. equi subsp. zooepidemicus cultured at necropsy, number positive horses","horses [1]; 3X, 90 mg/kg IV every 8 hours","0X (n = 2), 2X (n = 1), 3X (n = 1)"
same,Mean (± SD) temperature change from baseline,horses [2]; Hour 1,−1.1 (± 0.5) ° F.
same,Mean (± SD) temperature change from baseline,horses [2]; Hour 2,−1.4 (± 1.0) ° F.
same,Mean (± SD) temperature change from baseline,horses [2]; Hour 3,−1.9 (± 1.0) ° F.
same,Mean (± SD) temperature change from baseline,horses [2]; Hour 6,−1.9 (± 1.1) ° F.
same,Fever reduction post-dose,"horses [2]; Hours 1, 2, 3, 6",significantly reduced fever at all measured timepoints post-dose
same,Horses with reduced fever (>1° F.),"horses [2]; eight horses, Hour 6",87.5%
same,Horses with return to normothermia (≥2° F.),"horses [2]; eight horses, Hour 6",75%
